# Results reported in US9498420B2, “Cosmetic compositions and methods for inhibiting melanin synthesis” (The Procter & Gamble Company, priority 2013, dated 2016).
# Tested on: B16-F1 mouse melanoma cells
# Test: Melanin Synthesis Assay
# Assay type: cell-based
# Method: A B16-F1 mouse melanoma cell line may be employed as an assay to measure melanin synthesis. The B16-F1 cells may be obtained from […], Virginia, USA. The cell culture medium that may be used in the assay may comprise 500 mL of Dulbecco's Modified Eagle's Medium (DMEM), 50 mL Fetal Bovine Serum (FBS), and 5 mL of penicillin-streptomycin liquid. B16-F1 cells that are cultured in this medium and grown to greater than 90% confluency synthesize melanin. While not intending to be bound by any theory, it is hypothesized that melanin synthesis is stimulated by the culture medium and/or stress induced by growth to a high confluency. The DMEM and FBS can be obtained from […] and the penicillin-streptomycin liquid can be obtained from Invitrogen, Inc., California, USA. Equipment used in the assay include a CO2 incubator, such as a Forma Series Model 3110 by Therma Scientific, Massachusetts, USA; a hemocytometer, such as a Bright Line model by Hauser Scientific, Pennsylvania, USA; and a UV-Visible Spectrum Plate Reader, such as a SpectraMax250 from Molecular Devices, California, USA. The assay steps may include: Day 0—Cell Growth: Warm the cell culture medium to 37° C. and place 29 mL into a T-150 flask. Add approximately 1×10^6 of B16-F1 passage 1 mouse cells to the T-150 flask and incubate for 3 days at 37° C., 5% CO2, 90% relative humidity, until ˜80% confluency; Day 3—Initiate a 96 Well Plate: At day 3, trypsinize the cells from the T-150 flask and determine the concentration of cells using a hemocytometer. Initiate a 96 well plate with 2,500 cells per well in 100 microliters of cell culture medium. […] Read the 96 well plate using the UV-Vis Plate Reader at 410 nm to optically measure the amount of melanin produced between wells that are treated with [test compound] and control wells that are not treated with a test compound. […] Percentage of melanin synthesis inhibition is calculated by the following equation: [formula] Where OD410 is the Optical Density at 410 nm as measured by the UV-Vis Spectrum Plate Reader. […]
SMILES,"reduction in the production of melanin as compared to Sample 4 (HD/UP/Nia) (Table 1 concentrations, B16-F1 mouse melanoma cells, statistical comparison)","Average Melanin % Inhibition (Table 2, B16-F1 cells, where present: 0.03% batyl alcohol, 0.003% bisabolol, 0.0005% hexyldecanol, 0.0001% undecylenoyl phenylalanine, 0.0005% niacinamide)","reduction in the production of melanin as compared to Sample 9 (HD/UP/Nia) (Table 2 concentrations, mouse melanoma cells, statistical comparison)"
"CC(C)=CCC[C@](C)(O)[C@@H]1CC=C(C)CC1 [Sample 1, bisabolol]",did not significantly reduce,–,–
"CCCCCCCCCCCCCCCCCCOCC(O)CO (stereo not drawn) [Sample 8, batyl alcohol]",–,7%,did not significantly reduce
